Test results reported in patent US20250289795A1, “METHOD FOR PREPARATION OF COMPOUND POSSESSING 5-PENTYLFURFURAL (5-PF) STRUCTURE AND USE THEREOF” (FUGENBIO CO., LTD., priority 2022, published 2025).

Assays:
B16F10 cells = details: cited from earlier work
[1] = test system: AMP-activated protein kinase (AMPK); assay: AMPK expression in differentiated C2C12 cells; assay type: cell-based; details: C2C12, positive control 90 μg/mL
Protocol: In order to confirm the effect of 5-PF-Q on the expression of AMP-activated protein kinase (AMPK), differentiated muscle cell C2C12 cells were treated with 5-PF-Q at 10 μg/mL, 50 μg/mL, and 100 μg/mL for 24 hours, respectively, as shown in FIG. 7 (10% gel, 20 μg PTN, 1° ab pAMPK 1:3,000, tAMPK 1:1,000/2° ab 1:4,000).

Ob/Ob mice = assay: antidiabetic effect in Ob/Ob mice; assay type: in vivo
Protocol: In order to confirm the antidiabetic effect of 5-PF-Q, the changes, due to the administration of 5-PF-Q, in body weight, food intake, reduction of blood sugar levels, toxicity, and insulin resistance were measured.
The mice were divided into group A (weight 35 g or more) and group B (weight 35 g or less) based on body weight. According to the flowchart below, each group was assigned to a metformin (200 mg/kg) administration group (positive control group) and a 5-PF-Q (15 mg/kg) administration group (experimental group) and administered orally for 3 weeks. After the 3-week administration period, blood sugar levels were measured by performing an oral glucose tolerance test (OGTT), and the mice were sacrificed 3 weeks thereafter. OGTT was also performed at the same time point for the Ob/Ob vehicle group (negative control group) that was not administered with the compound, and non-diabetic C57BL/6 mice, and they were sacrificed.

## CCCCCc1ccc(C=O)o1 [5-pentyl-2-furaldehyde]
B16F10 cells
  cytotoxicity: without cytotoxicity
  inhibition of melanin production IC50: 8.4 µg/mL

## CN(C)C(=N)N=C(N)N [metformin]
[1]
  expression of AMPK (pAMPK/tAMPK): clearly observed
Ob/Ob mice; Ob/Ob mice, 200 mg/kg
  insulin resistance compared to Ob/Ob vehicle group: tendency to improve insulin resistance
Ob/Ob mice; group A (35 g or more), 200 mg/kg oral for 3 weeks
  OGTT blood sugar reduction pattern: blood sugar reduction pattern was similar
